In patent publication US20100280031A1, “LIPID FORMULATION OF APOPTOSIS PROMOTER” (priority 2009, published 2010):
Read-outs that look alike come from different tables or passages of the source.

What was measured:
[1] = PK study of ABT-263 bis-HCl liquid-filled capsules in non-fasted dogs; format: in vivo, beagle dogs
[2] = Phase 1 clinical PK study of ABT-263 bis-HCl formulation (Formulation C); format: in vivo, human; conditions: humans
Description: The formulation was prepared immediately or shortly (not more than about one month) prior to oral administration.
The study had several cycles, depending on the subjects' response to the drug.
The dose doubled until one grade 3 or two grade 2 toxicities occurred, after which dose escalated in 25-40% increments. Platelet levels were monitored and reviewed to inform dose escalation decisions.
Blood and plasma samples were protected from direct sunlight during collection, processing and storage. The timing of blood collections took priority over other scheduled study activities except for dosing. The order of blood collections was maintained to the minute such that the time intervals relative to the preceding dosing were the same for all subjects.
Blood samples were collected by venipuncture into 3-ml evacuated potassium EDTA-containing collection tubes during Cycle 1 Day −3, prior to dosing (0 hour) and at 0.5, 1, 2, 3, 4, 6, 8, 24, 48 and 72 (Day 1, predose sample) hours after dosing; Day 1, at 0.5, 1, 2, 3, 4, 6, 8 and 24 (Day 2, pre-dose sample) hours after dosing; Day 14, prior to dosing (0 hour) and at 0.5, 1, 2, 3, 4, 6 and 8 hours after dosing. Additional blood samples were collected at 0 hour (pre-dose) on Day 14, Cycle 2 through Cycle 6. Sufficient blood was collected to provide approximately 1 ml plasma from each sample. A total of 27 blood samples (approximately 81 ml) were collected per subject for pharmacokinetic analysis during Cycle 1 and one additional blood sample per subject per cycle, up to Cycle 6.

[3] = food-effect PK study of ABT-263 free base formulation in dogs; format: in vivo, beagle dogs; conditions: 10 mg/kg oral, 20 mg/ml, carrier PEG 400/Phosal 50 PG/DMSO (60:30:10)
[4] = PK study of ABT-263 free base formulations in fasted dogs; format: in vivo, beagle dogs; conditions: oral
Description: Serial heparinized blood samples were obtained from a jugular vein of each animal prior to dosing and 0.25, 0.5, 1, 1.5, 2, 3, 4, 6, 9, 12, 15 and 24 hours after administration. […] The bioavailability was calculated as the dose-normalized AUC0-∞ from oral dosing divided by the corresponding value derived from i.v. (intravenous) dosing, administered as a slow bolus to a cephalic vein.

[5] = PK study of ABT-263 free base liquid-filled capsules in non-fasted dogs; format: in vivo, beagle dogs
[6] = PK study of ABT-263 free base formulations in rats; format: in vivo, Sprague-Dawley rats; conditions: fasted rats, 5 mg/kg oral
Description: (§1) Serial heparinized blood samples were obtained from a tail vein of each animal prior to dosing and 0.25, 0.5, 1, 1.5, 2, 3, 4, 6, 8 and 24 hours after administration.

solubility in water = conditions: pH 2
Excerpt: It will be recognized that aqueous solubility of many compounds is pH-dependent; in the case of such compounds the solubility of interest herein is at a physiologically relevant pH, for example a pH of about 1 to about 8.

[7] = PK study of ABT-737 formulations in rats; format: in vivo, Sprague-Dawley rats; conditions: for AUC(0-inf) / bioavailability / Cmax: rats, 5 mg/kg oral; for bioavailability: read-out: Bioavailability (F %)
Description: as §1
Analysis was performed on a Sciex API3000™ biomolecular mass analyzer with a heated nebulizer interface. ABT-737 and internal standard peak areas were determined using Sciex MacQuan™ software. The plasma drug concentration of each sample was calculated by least squares linear regression analysis (non-weighted) of the peak area ratio (parent/internal standard) of the spiked plasma standards versus concentration. The plasma concentration data were submitted to multi-exponential curve fitting using WinNonlin 3 (Pharsight).
The area under the plasma concentration-time curve from 0 to t hours (time of the last measured plasma concentration) after dosing (AUC0-t) was calculated using the linear trapezoidal rule for the plasma concentration-time profiles. The residual area extrapolated to infinity, determined as the final measured plasma concentration (Ct) divided by the terminal elimination rate constant (β), was added to AUC0-t to produce the total area under the curve (AUC0-∞). The bioavailability was calculated as the dose-normalized AUC0-∞ from oral dosing divided by the corresponding value derived from i.v. (intravenous) dosing, administered as a slow bolus to a jugular vein under light ether anesthetic.

[8] = carrier Labrasol/Tween 20 (70:30), 50 mg/dog
[9] = carrier Phosal 53 MCT, 50 mg/dog
[10] = carrier Phosal 53 MCT/Labrasol (70:30), 50 mg/dog
[11] = carrier Phosal 53 MCT/Tween 20 (80:20), 50 mg/dog
[12] = 315 mg/day, Day 14, non-fasting
[13] = carrier PEG 400/DMSO (90:10), 2.5 mg/kg, 5 mg/ml
[14] = carrier PEG 400/DMSO (90:10), 5 mg/kg, 10 mg/ml
[15] = carrier PEG 400/DMSO (90:10), 10 mg/kg, 20 mg/ml
[16] = carrier PEG 400/Phosal 50 PG/DMSO (60:30:10), 5 mg/kg, 10 mg/ml
[17] = carrier PEG 400/Phosal 50 PG/DMSO (60:30:10), 10 mg/kg, 20 mg/ml
[18] = liquid-filled capsules, carrier Capmul PG-8, 50 mg/dog
[19] = liquid-filled capsules, carrier Capmul PG-8/Cremophor EL (90:10), 50 mg/dog
[20] = liquid-filled capsules, carrier Phosal 53 MCT/PEG 400 (70:30), 50 mg/dog
[21] = liquid-filled capsules, carrier oleic acid/PEG 400/Cremophor EL (80:10:10), 50 mg/dog
[22] = oral, carrier PEG 400/Phosal 50 PG/DMSO (60:30:10), 20 mg/kg
[23] = carrier PEG 400/DMSO (90:10), 2 mg/ml
[24] = carrier PEG 400/Phosal 50 PG/DMSO (60:30:10), 5 mg/ml
[25] = Sprague-Dawley, rat, plasma, po, 5 mg/kg, carrier D5W/PG/DMSO/Tween (70:20:5:5), 5 mg/ml
[26] = Sprague-Dawley, rat, plasma, po, 5 mg/kg, carrier Imwitor 380 (unneutralized)/ethanol (95:5), 10 mg/ml
[27] = Sprague-Dawley, rat, plasma, po, 5 mg/kg, carrier Phosal 50 PG/ethanol (90:10), 50 mg/ml
[28] = Sprague-Dawley, rat, plasma, po, 5 mg/kg, carrier Phosal 53 MCT/ethanol (90:10), 10 mg/ml

**Q.** What does the source list for `CC1(C)CCC(c2ccc(Cl)cc2)=C(CN2CCN(c3ccc(C(=O)NS(=O)(=O)c4ccc(N[C@H](CCN5CCOCC5)CSc5ccccc5)c(S(=O)(=O)C(F)(F)F)c4)cc3)CC2)C1.Cl.Cl` [ABT-263 bis-HCl]?
**A.** Bioavailability (F %) ([1]; carrier Labrasol, […]): 29.4%; AUC0-∞ [1, 8]: 84800 ng·h/mL; Bioavailability (F %) [1, 8]: 39.0%; Cmax [1, 8]: 10310 ng/mL; AUC0-∞ [1, 9]: 89700 ng·h/mL; Bioavailability (F %) [1, 9]: 49.0%; Cmax [1, 9]: 9250 ng/mL; AUC0-∞ [1, 10]: 94300 ng·h/mL; Bioavailability (F %) [1, 10]: 38.5%; Cmax [1, 10]: 15830 ng/mL; Bioavailability (F %) ([1]; carrier Phosal 53 MCT/PEG 400 (70:30), […]): 40.8%; AUC0-∞ [1, 11]: 89900 ng·h/mL; Bioavailability (F %) [1, 11]: 48.5%; Cmax [1, 11]: 14020 ng/mL

**Q.** Which results are given for `CC1(C)CCC(c2ccc(Cl)cc2)=C(CN2CCN(c3ccc(C(=O)NS(=O)(=O)c4ccc(N[C@H](CCN5CCOCC5)CSc5ccccc5)c(S(=O)(=O)C(F)(F)F)c4)cc3)CC2)C1` [ABT-263]?
**A.** plasma concentration at steady state (peak) [2, 12]: about 5.5 μg/ml; plasma concentration at steady state (trough) [2, 12]: about 3 μg/ml; Tmax ([2]; single 315 mg dose, both fasting and non-fasting (FIG. 2)): around 8 hours; AUC0-∞ ([3]; fasted dogs): 156100 ng·h/mL; Cmax ([3]; fasted dogs): 20300 ng/mL; Bioavailability (F %) ([3]; fasted dogs, 10 mg/kg): 32.3%; AUC0-∞ ([3]; non-fasted dogs): 255600 ng·h/mL; Bioavailability (F %) ([3]; non-fasted dogs): 52.9%; Cmax ([3]; non-fasted dogs): 23500 ng/mL; AUC0-∞ [4, 13]: 27100 ng·h/mL; Cmax [4, 13]: 3670 ng/mL; AUC0-∞ [4, 14]: 39800 ng·h/mL; Bioavailability (F %) [4, 14]: 16.5%; Cmax [4, 14]: 6750 ng/mL; AUC0-∞ [4, 15]: 58300 ng·h/mL; Bioavailability (F %) [4, 15]: 12.1%; Cmax [4, 15]: 8460 ng/mL; AUC0-∞ [4, 16]: 115100 ng·h/mL; Cmax [4, 16]: 13220 ng/mL; AUC0-∞ [4, 17]: 173900 ng·h/mL; Bioavailability (F %) [4, 17]: 36.0%; Cmax [4, 17]: 21600 ng/mL; AUC0-∞ [5, 18]: 59100 ng·h/mL; Bioavailability (F %) [5, 18]: 24.9%; Cmax [5, 18]: 6400 ng/mL; AUC0-∞ [5, 19]: 63300 ng·h/mL; Bioavailability (F %) [5, 19]: 27.7%; Cmax [5, 19]: 10610 ng/mL; AUC0-∞ [5, 20]: 119800 ng·h/mL; Bioavailability (F %) [5, 20]: 53.0%; Cmax [5, 20]: 21500 ng/mL; AUC0-∞ [5, 21]: 43800 ng·h/mL; Bioavailability (F %) [5, 21]: 20.5%; Cmax [5, 21]: 6840 ng/mL; AUC0-∞ [5, 22]: 537200 ng·h/mL; Bioavailability (F %) [5, 22]: 51.3%; Cmax [5, 22]: 47300 ng/mL; AUC0-∞ [6, 23]: 7530 ng·h/mL; Bioavailability (F %) [6, 23]: 21.6%; Cmax [6, 23]: 670 ng/mL; AUC0-∞ [6, 24]: 9960 ng·h/mL; Bioavailability (F %) [6, 24]: 28.5%; Cmax [6, 24]: 1050 ng/mL; solubility in water (solubility in water): less than 4 μg/ml

**Q.** Which results are given for `CN(C)CC[C@H](CSc1ccccc1)Nc1ccc(S(=O)(=O)NC(=O)c2ccc(N3CCN(Cc4ccccc4-c4ccc(Cl)cc4)CC3)cc2)cc1[N+](=O)[O-]` [ABT-737, N-(4-(4-((4′-chloro-(1,1′-biphenyl)-2-yl)methyl)piperazin-1-yl)benzoyl)-4-(((1R)-3-(dimethylamino)-1-((phenylsulfanyl)methyl)propyl)amino)-3-nitrobenzene-sulfonamide]?
**A.** AUC(0-inf) [7, 25]: 230 ng·h/mL; bioavailability [7, 25]: 5.9%; AUC(0-inf) [7, 26]: 150 ng·h/mL; bioavailability [7, 26]: 3.9%; Cmax ([7]; Sprague-Dawley, rat, plasma, po, 5 mg/kg, carrier Imwitor 380 (unneutralized)/ethanol (95:5), 10 mg/ml, read-out: Cmax): 29 ng/mL; AUC(0-inf) [7, 27]: 60 ng·h/mL; bioavailability [7, 27]: 1.5%; Cmax ([7]; Sprague-Dawley, rat, plasma, po, 5 mg/kg, carrier Phosal 50 PG/ethanol (90:10), 50 mg/ml, read-out: Cmax): 24 ng/mL; AUC(0-inf) [7, 28]: 130 ng·h/mL; bioavailability [7, 28]: 3.3%; Cmax ([7]; Sprague-Dawley, rat, plasma, po, 5 mg/kg, carrier Phosal 53 MCT/ethanol (90:10), 10 mg/ml, read-out: Cmax): 28 ng/mL; Cmax ([7]; carrier D5W/PG/DMSO/Tween (70:20:5:5), 5 mg/ml): 32 ng/mL; Bioavailability in rats ([7]; regardless of the carrier): extremely low
